The source of these data is US20110002820A1, “EXTERIOR SURFACE TREATMENT SYSTEM” (priority 2008, published 2011).

Assay type in all cases: cell-based
One assay relates to Stiegeocionim sp. Put plainly: Algistatic concentration against algae.
The next assay relates to Anabaena cylindrica. The experiment in a line: Algistatic concentration against algae.
The next assay concerns Chaetomium globosum. The experiment in a line: Fungicidal activity, minimum inhibitory concentration against fungi.
A further assay relates to Trichoderma viridae. The description is as above.
For a further assay, the system named is Chlorella vulgaris. Put plainly: Algistatic concentration against algae.
The subject of another assay is Aspergillus niger. The experiment in a line: Fungicidal activity, minimum inhibitory concentration against fungi.
A further assay deals with Oscillatoria tenius. The experiment in a line: Algistatic concentration against algae.
Another assay deals with Myrothecium verrucaria. The experiment in a line: Fungicidal activity, minimum inhibitory concentration against fungi.

On to benzalkonium chloride [BAC], for which the Algistatic concentration with Stiegeocionim sp. is listed as 0.7 ppm; in the assay with Anabaena cylindrica it was 1.0 ppm; in the assay with Chlorella vulgaris, 1.0 ppm; in the assay with Oscillatoria tenius, 0.6 ppm. The Minimum inhibitory concentration in the assay on Chaetomium globosum was 7 ppm; in the assay with Trichoderma viridae, 75 ppm; with Aspergillus niger, 75 ppm; with Myrothecium verrucaria, 150 ppm.

For the compound `CCCCCCCCCC[N+](C)(C)CCCCCCCCCC.[Cl-]` [DDAC, didecyl dimethyl ammonium chloride], the Algistatic concentration in the assay with Stiegeocionim sp. is given as 0.7 ppm; in the assay with Anabaena cylindrica, 0.2 ppm; with Chlorella vulgaris, 2.0 ppm; with Oscillatoria tenius, 0.7 ppm. The minimum inhibitory concentration (MIC) – broadly, the lowest concentration that inhibits growth of the organism – with Chaetomium globosum was determined as 7 µg/mL; against Trichoderma viridae, 20 µg/mL; against Aspergillus niger, 75 µg/mL; in the assay with Myrothecium verrucaria (Albifimbria verrucaria), 20 µg/mL.
